{
  "source": "patent US5994334A",
  "about": "“Androgen synthesis inhibitors” (priority 1997, dated 1999)",
  "molecules": {"B1": {"name": "rat 17α-hydroxylase (Rattus norvegicus) (protein)", "chain": "MWELVGLLLLILAYFFWVKSKTPGAKLPRSLPSLPLVGSLPFLPRRGHMHVNFFKLQEKYGPIYSLRLGTTTTVIIGHYQLAREVLIKKGKEFSGRPQMVTQSLLSDQGKGVAFADAGSSWHLHRKLVFSTFSLFKDGQKLEKLICQEAKSLCDMMLAHDKESIDLSTPIFMSVTNIICAICFNISYEKNDPKLTAIKTFTEGIVDATGDRNLVDIFPWLTIFPNKGLEVIKGYAKVRNEVLTGIFEKCREKFDSQSISSLTDILIQAKMNSDNNNSCEGRDPDVFSDRHILATVGDIFGAGIETTTTVLKWILAFLVHNPEVKKKIQKEIDQYVGFSRTPTFNDRSHLLMLEATIREVLRIRPVAPMLIPHKANVDSSIGEFTVPKDTHVVVNLWALHHDENEWDQPDQFMPERFLDPTGSHLITPTQSYLPFGAGPRSCIGEALARQELFVFTALLLQRFDLDVSDDKQLPRLEGDPKVVFLIDPFKVKITVRQAWMDAQAEVST"}, "B2": {"name": "rat C17,20-lyase (Rattus norvegicus) (protein)", "chain": "MWELVGLLLLILAYFFWVKSKTPGAKLPRSLPSLPLVGSLPFLPRRGHMHVNFFKLQEKYGPIYSLRLGTTTTVIIGHYQLAREVLIKKGKEFSGRPQMVTQSLLSDQGKGVAFADAGSSWHLHRKLVFSTFSLFKDGQKLEKLICQEAKSLCDMMLAHDKESIDLSTPIFMSVTNIICAICFNISYEKNDPKLTAIKTFTEGIVDATGDRNLVDIFPWLTIFPNKGLEVIKGYAKVRNEVLTGIFEKCREKFDSQSISSLTDILIQAKMNSDNNNSCEGRDPDVFSDRHILATVGDIFGAGIETTTTVLKWILAFLVHNPEVKKKIQKEIDQYVGFSRTPTFNDRSHLLMLEATIREVLRIRPVAPMLIPHKANVDSSIGEFTVPKDTHVVVNLWALHHDENEWDQPDQFMPERFLDPTGSHLITPTQSYLPFGAGPRSCIGEALARQELFVFTALLLQRFDLDVSDDKQLPRLEGDPKVVFLIDPFKVKITVRQAWMDAQAEVST"}},
  "key": {"adrenal C17,20-lyase": {"system": "adrenal C17,20-lyase", "assay": "Inhibition of adrenal C17,20-lyase", "type": "biochemical", "settings": "guinea pig adrenal", "description": "(§1) These studies were carried out using guinea pig adrenals. In contrast to the rat, the guinea pig synthesizes cortisol, like the human. […] I-5 and I-7 were of interest, as they had relatively little (4%) or no effect on the adrenal 17α-hydroxylase required for cortisol synthesis but had moderately strong effects on the C17,20 -lyase causing reduction in adrenal androgen synthesis (77% and 63%, respectively)."}, "adrenal 17α-hydroxylase": {"system": "adrenal 17α-hydroxylase", "assay": "Inhibition of adrenal 17α-hydroxylase", "type": "biochemical", "settings": "guinea pig adrenal", "description": "as §1"}, "[1]": {"target": "T1, Human Testicular C17,20-lyase (Homo sapiens, UniProt P05093)", "T1 construct": "incubating human testicular microsomes; from tissue; host or cells: human testis, microsomes", "T1 sequence (P05093 1-508)": "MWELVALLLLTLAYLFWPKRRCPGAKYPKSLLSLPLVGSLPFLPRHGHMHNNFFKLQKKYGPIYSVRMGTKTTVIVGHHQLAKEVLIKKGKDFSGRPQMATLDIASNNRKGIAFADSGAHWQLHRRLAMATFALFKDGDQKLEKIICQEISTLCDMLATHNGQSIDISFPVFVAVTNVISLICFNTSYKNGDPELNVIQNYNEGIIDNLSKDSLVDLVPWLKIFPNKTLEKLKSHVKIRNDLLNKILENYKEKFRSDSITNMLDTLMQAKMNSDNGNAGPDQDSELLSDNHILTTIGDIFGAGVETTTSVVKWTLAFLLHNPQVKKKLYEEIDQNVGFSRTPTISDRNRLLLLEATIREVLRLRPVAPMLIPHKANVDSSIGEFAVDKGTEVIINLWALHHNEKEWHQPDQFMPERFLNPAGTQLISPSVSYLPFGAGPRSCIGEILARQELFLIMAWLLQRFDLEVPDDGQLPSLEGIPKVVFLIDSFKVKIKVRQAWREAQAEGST", "assay": "Inhibition of human testicular C17,20-lyase (pregnenolone substrate, testicular microsomes)", "type": "biochemical", "settings": "Table 1; NI = no inhibition; CI = complete inhibition; read-out: IC50 C17,20 lyase", "method_in_brief": "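Pregnenolone, the natural human substrate, was supplied radiolabeled to human testicular microsomes in the presence of different inhibitor concentrations. Products were resolved by reverse-phase HPLC, and the two activities were calculated separately from conversion to DHEA (lyase) or to 17α-hydroxypregnenolone and DHEA together (hydroxylase).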"}, "[2]": {"target": "T2, Human Prostatic 5α-Reductase (Homo sapiens, UniProt P31213)", "T2 sequence (P31213 1-254)": "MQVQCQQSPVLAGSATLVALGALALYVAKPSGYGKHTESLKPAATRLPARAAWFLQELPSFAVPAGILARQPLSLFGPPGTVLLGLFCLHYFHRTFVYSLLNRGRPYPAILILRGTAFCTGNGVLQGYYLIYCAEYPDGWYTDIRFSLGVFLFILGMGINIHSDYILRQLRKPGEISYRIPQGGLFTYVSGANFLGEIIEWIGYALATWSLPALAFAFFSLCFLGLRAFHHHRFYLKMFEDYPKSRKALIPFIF", "assay": "Inhibition of human prostatic 5α-reductase (prostatic microsomes, [3H]testosterone)", "quoted_text": "The 5α-reductase assay is performed by incubating human prostatic microsomes (approx. 0.6 mg protein in 0.5 ml phosphate buffer) with [7-^3 H]testosterone (10 mM. 6×10^5 dpm) with a NADPH generating system (NADP 0.65 mM; glucose-6-phosphate 7.1 mM; glucose-6-phosphate dehydrogenase 2.5 IU in 100 μl phosphate buffer) and candidate inhibitors at concentrations of 10 nM and 100 nM under oxygen for 30 min at 37° C. […] The steroids are extracted with ether and separated by chromatography on TLC (chloroform:ether 80:20). […] The steroids are scraped from the plate and radioactivity measured."}, "[3]": {"substrate": "CC(=O)[C@H]1CC[C@H]2[C@@H]3CCC4=CC(=O)CC[C@]4(C)[C@H]3CC[C@]12C", "assay": "Inhibition kinetics of rat 17α-hydroxylase, progesterone substrate", "type": "biochemical", "settings": "other: substrate"}, "[4]": {"substrate": "CC(=O)[C@@]1(O)CC[C@H]2[C@@H]3CCC4=CC(=O)CC[C@]4(C)[C@H]3CC[C@@]21C", "assay": "Inhibition kinetics of rat C17,20-lyase, 17α-hydroxyprogesterone substrate", "type": "biochemical", "settings": "other: substrate"}},
  "data": [
    {"molecule": "C[C@]12CC[C@H]3[C@@H](CC=C4C[C@@H](O)CC[C@@]43C)[C@@H]1CC[C@@H]2[C@]1(C)CO1", "note": "[Compound I-7]", "values": [
      {"measurement": "reduction in adrenal androgen synthesis (C17,20-lyase)", "setting": "adrenal C17,20-lyase", "value": 63, "unit": "%"},
      {"measurement": "effect on adrenal 17α-hydroxylase (in words)", "setting": "adrenal 17α-hydroxylase", "value": "no effect"},
      {"measurement": "IC50", "setting": "[1]", "value": 0.72, "unit": "µM"},
      {"measurement": "inhibition at 0.01 µM", "setting": "[2]; read-out: % Inhibition of 5α-reductase, [I] 10 nM", "value": 13.6, "unit": "%"},
      {"measurement": "inhibition at 0.1 µM", "setting": "[2]; read-out: % Inhibition of 5α-reductase, [I] 100 nM", "value": 12.1, "unit": "%"}
    ]},
    {"molecule": "B1", "values": [
      {"measurement": "Km", "setting": "[3]", "value": 0.029, "unit": "µM"}
    ]},
    {"molecule": "B2", "values": [
      {"measurement": "Km", "setting": "[4]", "value": 0.076, "unit": "µM"}
    ]}
  ]
}
